What was measured:
[1] = tested on: S6RP serine-240/244 phosphorylation; test: In vitro phospho-S6 cellular assay (HEK293T/17); format: cell-based; settings: Homo sapiens; HEK293T/17 cells, 2 hours, pS6RP Ser240/244; read-out: Inhibition values (IC50) pS6
Description: Activation of mTOR signaling results in phosphorylation of several downstream targets. In cells, mTOR exists in two different protein complexes. The mTOR Complex-1 (mTORC1) phosphorylates and activates S6 Kinase 1 (S6K1) and S6 Kinase 2 (S6K2) (also known as p70S6K) which then phosphorylate S6 Ribosomal Protein (S6RP) (also known as RPS6)3. S6RP is phosphorylated on serine 235, senile 236, serine 240 and serine 244 by both pS6K1 and pS6K2. The mTOR Complex-2 (mTORC2) phosphorylates AKT on serine 473 which activates the AKT signaling pathway.
The assay measures a test compound's inhibition of S6RP serine-240/244 phosphorylation and inhibition of Akt serine-473 phosphorylation in human embryonic kidney derived HEK293T/17 cells (ATCC CRL-11268).
The HEK293T/17 cell line is maintained in DMEM media (Invitrogen catalogue number 41965-039) supplemented with 10% FCS at 37° C. in a 5% CO2 humidified incubator. Cells are seeded in 96-well plates at 40,000 cells/well (pS6RP S240/244 assay) or 80,000 cells/well (pAkt 5473 assay) in 90 μl growth media (DMEM, 2% FCS). Plates are incubated for 1 hour in a humidified incubator to allow the cells to adhere. Cells are treated with 8 concentrations of test compounds or DMSO alone for controls (final DMSO concentration 0.1%) and incubated at 37° C. for 2 hours. Then 20 μl of 5× concentrated lysis buffer (750 mM NaCl, 100 mM Tris pH7.4, 5 mM ADTA, 5 mM EGTA, 5% Triton X-100) is added, plates are sealed and incubated for 15 minutes at 4° C. with gentle shaking After cell lysis, 25 μl cell lysate is transferred to a MesoScale plate coated with an antibody to pS6RP Ser240/244 (MesoScale Discovery K150DGD-3) or an antibody to pAkt Ser 473 (MesoScale Discovery K151DGD-3). Plates have been blocked before by incubation with 150 μl MesoScale Discovery Blocking Solution-A for 1 hour at room temperature followed by washing with 150 μl 1×Tris wash buffer per well. After the transfer of the cell lysate to the MSD plate, the pS6RP (or pAkt) protein is captured on the coated antibody by incubation at room temperature for 1 hour with gentle shaking. After the capture step the plate is washed three times with 150 μl of 1× Tris wash buffer per well. Then 25 μl detection antibody conjugated with a Sulfo-Tag is added and incubated for 1 hour at room temperature with gentle shaking. Subsequently the antibody solution is removed and the plate is washed 3 times with 150 μl 1×Tris wash buffer per well and 150 μl Read buffer is added. The plates are analysed on a MSD 2400 Plate Reader (MesoScale Discovery). Data analysis is performed using nonlinear regression for a sigmoidal dose-response with a variable slope.

[2] = target: T1, DNA-dependent protein kinase (DNA-PK) (Homo sapiens, UniProt P78527); test: kinobeads assay, DNA-PK; format: binding; settings: Jurkat cell lysate, read-out: Inhibition values (IC50) DNA-PK
T1 construct: Jurkat cells were homogenized in a Potter S homogenizer in lysis buffer; endogenous in cells; host or cells: Jurkat, clone E6-1 (ATCC TIB-152) lysate
Protocol: (§1) The compounds of the present invention as described were tested in the mTOR kinobeads assay as described below. Briefly, test compounds (at various concentrations) and the affinity matrix (1:1 mixture of beads with immobilized phenylthiazole ligand 1 and beads with immobilized phenylmorpholin-chromen ligand; WO 2009/098021) were added to cell lysate aliquots and allowed to bind to the proteins in the lysate sample. After the incubation time the beads with captured proteins were separated from the lysate. Bound proteins were then eluted and the presence of mTOR, PI3K alpha (PI3Kα), PI3K beta (PI3Kb), PI3K gamma (PI3Kg), PI3K delta (PI3Kd) and DNA-dependent protein kinase (DNA-PK) was detected and quantified using a specific antibody in a dot blot procedure and the Odyssey infrared detection system. Dose response curves for individual kinases were generated and IC50 values calculated. Kinobeads assays for PI3 kinases (WO-A 2008/015013) and for kinase selectivity profiling (WO 2009/098021) have been previously described.
(§2) The affinity matrix (beads with immobilized phenylmorpholin-chromen ligand) was washed three times with 15 ml of 1×DP buffer containing 0.2% NP40 (IGEPAL® CA-630, Sigma, #13021) and then resuspended in 5.5 ml of 1×DP buffer containing 0.2% NP40 (10% beads slurry).
(§3) 5×DP buffer: 250 mM Tris-HCl pH 7.4, 25% Glycerol, 7.5 mM MgCl2, 750 mM NaCl, 5 mM Na3VO4, filter the 5×-lysis buffer through 0.22 μm filter and store in aliquots at −80° C. The 5×DP buffer is diluted to 1×DP buffer containing 1 mM DTT and 25 mM NaF.
(§4) Stock solutions of test compounds were prepared in DMSO. In a 96 well plate 30 μl solution of diluted test compounds at 5 mM in DMSO were prepared. Starting with this solution a 1:3 dilution series (9 steps) was prepared. For control experiments (no test compound) a buffer containing 2% DMSO was used. Compound PI-103 served as a positive control (Calbiochem catalogue number 528100).
(§5) Jurkat cells (ATCC catalogue number TIB-152 Jurkat, clone E6-1) were grown in 1 liter Spinner flasks (Integra Biosciences, #182101) in suspension in RPMI 1640 medium (Invitrogen, #21875-034) supplemented with 10% Fetal Bovine Serum (Invitrogen) at a density between 0.15×10^6 and 1.2×10^6 cells/ml. Cells were harvested by centrifugation, washed once with 1×PBS buffer (Invitrogen, #14190-094) and cell pellets were frozen in liquid nitrogen and subsequently stored at −80° C.
(§6) Jurkat cells were homogenized in a Potter S homogenizer in lysis buffer: 50 mM Tris-HCl, 0.8% NP40, 5% glycerol, 150 mM NaCl, 1.5 mM MgCl2, 25 mM NaF, 1 mM sodium vanadate, 1 mM DTT, pH 7.5. One complete EDTA-free tablet (protease inhibitor cocktail, Roche Diagnostics, 1873580) per 25 ml buffer was added. The material was dounced 10 times using a mechanized POTTER S, transferred to 50 ml falcon tubes, incubated for 30 minutes on ice and spun down for 10 min at 20,000 g at 4° C. (10,000 rpm in Sorvall SLA600, precooled). The supernatant was transferred to an ultracentrifuge (UZ)-polycarbonate tube (Beckmann, 355654) and spun for 1 hour at 100.000 g at 4° C. (33.500 rpm in Ti50.2, precooled). The supernatant was transferred again to a fresh 50 ml falcon tube, the protein concentration was determined by a Bradford assay (BioRad) and samples containing 50 mg of protein per aliquot were prepared. The samples were immediately used for experiments or frozen in liquid nitrogen and stored frozen at −80° C.
(§7) Jurkat cell lysate (approximately 50 mg protein per plate) was thawed in a water bath at room temperature and then kept on ice. To the thawed cell lysate 1×DP 0.8% NP40 buffer containing protease inhibitors (1 tablet for 25 ml buffer; EDTA-free protease inhibitor cocktail; Roche Diagnostics 1873580) was added in order to reach a final protein concentration of 5 mg/ml total protein. The diluted cell lysate was stored on ice. […]

mTOR = target: T2, mTOR (Homo sapiens, UniProt P42345); test: mTOR kinobeads assay (Jurkat cell lysate, dot blot detection); format: binding; settings: read-out: Inhibition values (IC50) mTor
T2 construct: Jurkat cells were homogenized in a Potter S homogenizer in lysis buffer; endogenous in cells; host or cells: Jurkat, clone E6-1 (ATCC TIB-152) lysate
Protocol: as §1, §2, §3, §4, §5, §6, §7

PI3K alpha (PI3Kα) = target: T3, PI3K alpha (PI3Kα) (Homo sapiens, UniProt P42336); test: kinobeads assay, PI3K alpha; format: binding; settings: Jurkat cell lysate, read-out: Inhibition values (IC50) PI3Ka
T3 construct: Jurkat cells were homogenized in a Potter S homogenizer in lysis buffer; endogenous in cells; host or cells: Jurkat, clone E6-1 (ATCC TIB-152) lysate
T3 sequence (P42336 whole entry): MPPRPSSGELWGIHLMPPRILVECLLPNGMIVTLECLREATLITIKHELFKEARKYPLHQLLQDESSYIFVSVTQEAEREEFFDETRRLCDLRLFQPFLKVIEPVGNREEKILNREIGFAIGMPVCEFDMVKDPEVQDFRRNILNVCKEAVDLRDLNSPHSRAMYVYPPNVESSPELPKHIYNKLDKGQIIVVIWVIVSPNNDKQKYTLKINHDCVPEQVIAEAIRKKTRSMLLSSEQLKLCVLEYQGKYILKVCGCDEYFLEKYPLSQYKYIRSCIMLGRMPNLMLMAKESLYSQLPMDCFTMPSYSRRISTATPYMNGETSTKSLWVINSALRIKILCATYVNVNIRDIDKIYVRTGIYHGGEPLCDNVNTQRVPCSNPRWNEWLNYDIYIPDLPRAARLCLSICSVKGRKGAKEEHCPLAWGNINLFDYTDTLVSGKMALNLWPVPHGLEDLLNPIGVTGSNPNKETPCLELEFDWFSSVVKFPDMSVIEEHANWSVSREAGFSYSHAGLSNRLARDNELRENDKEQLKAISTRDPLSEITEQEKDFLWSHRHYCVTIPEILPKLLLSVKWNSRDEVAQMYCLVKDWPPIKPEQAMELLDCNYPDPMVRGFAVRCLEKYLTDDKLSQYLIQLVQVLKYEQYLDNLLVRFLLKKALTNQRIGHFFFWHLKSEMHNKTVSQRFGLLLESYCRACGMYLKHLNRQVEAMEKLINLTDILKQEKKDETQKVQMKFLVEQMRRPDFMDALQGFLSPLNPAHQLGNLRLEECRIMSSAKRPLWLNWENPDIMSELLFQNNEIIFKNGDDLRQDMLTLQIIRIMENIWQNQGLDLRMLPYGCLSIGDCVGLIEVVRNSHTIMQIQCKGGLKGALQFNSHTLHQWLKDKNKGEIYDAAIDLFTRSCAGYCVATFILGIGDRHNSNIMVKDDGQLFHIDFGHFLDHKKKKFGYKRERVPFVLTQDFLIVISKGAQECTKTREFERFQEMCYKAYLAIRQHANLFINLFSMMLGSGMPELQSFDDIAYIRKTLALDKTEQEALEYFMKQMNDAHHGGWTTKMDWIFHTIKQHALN
T3 sequence (P27986 whole entry partner): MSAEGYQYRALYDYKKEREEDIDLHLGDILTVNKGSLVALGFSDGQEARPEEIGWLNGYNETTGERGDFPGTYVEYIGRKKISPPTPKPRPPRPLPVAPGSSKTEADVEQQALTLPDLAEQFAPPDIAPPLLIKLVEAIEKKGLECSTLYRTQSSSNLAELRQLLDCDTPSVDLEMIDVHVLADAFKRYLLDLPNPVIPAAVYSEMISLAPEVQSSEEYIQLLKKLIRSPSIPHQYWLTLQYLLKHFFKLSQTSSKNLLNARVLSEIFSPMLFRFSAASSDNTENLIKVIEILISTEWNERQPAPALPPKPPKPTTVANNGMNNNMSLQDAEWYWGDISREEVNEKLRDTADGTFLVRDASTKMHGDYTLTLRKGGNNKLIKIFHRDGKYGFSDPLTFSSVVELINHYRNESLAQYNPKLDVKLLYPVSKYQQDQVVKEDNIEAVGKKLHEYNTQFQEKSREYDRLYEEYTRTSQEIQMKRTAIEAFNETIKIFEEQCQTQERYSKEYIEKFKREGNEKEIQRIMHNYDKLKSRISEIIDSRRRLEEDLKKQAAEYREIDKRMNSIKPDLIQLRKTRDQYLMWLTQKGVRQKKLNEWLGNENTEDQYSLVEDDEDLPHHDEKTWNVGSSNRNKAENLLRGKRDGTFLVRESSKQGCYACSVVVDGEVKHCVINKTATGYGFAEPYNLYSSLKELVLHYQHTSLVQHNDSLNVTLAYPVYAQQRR
Protocol: as §1, §2, §3, §4, §5, §6, §7

PI3K delta (PI3Kd) = target: T4, PI3K delta (PI3Kd) (Homo sapiens, UniProt O00329); test: kinobeads assay, PI3K delta; format: binding; settings: Jurkat cell lysate, read-out: Inhibition values (IC50) PI3Kd
T4 construct: Jurkat cells were homogenized in a Potter S homogenizer in lysis buffer; endogenous in cells; host or cells: Jurkat, clone E6-1 (ATCC TIB-152) lysate
T4 sequence (O00329 whole entry): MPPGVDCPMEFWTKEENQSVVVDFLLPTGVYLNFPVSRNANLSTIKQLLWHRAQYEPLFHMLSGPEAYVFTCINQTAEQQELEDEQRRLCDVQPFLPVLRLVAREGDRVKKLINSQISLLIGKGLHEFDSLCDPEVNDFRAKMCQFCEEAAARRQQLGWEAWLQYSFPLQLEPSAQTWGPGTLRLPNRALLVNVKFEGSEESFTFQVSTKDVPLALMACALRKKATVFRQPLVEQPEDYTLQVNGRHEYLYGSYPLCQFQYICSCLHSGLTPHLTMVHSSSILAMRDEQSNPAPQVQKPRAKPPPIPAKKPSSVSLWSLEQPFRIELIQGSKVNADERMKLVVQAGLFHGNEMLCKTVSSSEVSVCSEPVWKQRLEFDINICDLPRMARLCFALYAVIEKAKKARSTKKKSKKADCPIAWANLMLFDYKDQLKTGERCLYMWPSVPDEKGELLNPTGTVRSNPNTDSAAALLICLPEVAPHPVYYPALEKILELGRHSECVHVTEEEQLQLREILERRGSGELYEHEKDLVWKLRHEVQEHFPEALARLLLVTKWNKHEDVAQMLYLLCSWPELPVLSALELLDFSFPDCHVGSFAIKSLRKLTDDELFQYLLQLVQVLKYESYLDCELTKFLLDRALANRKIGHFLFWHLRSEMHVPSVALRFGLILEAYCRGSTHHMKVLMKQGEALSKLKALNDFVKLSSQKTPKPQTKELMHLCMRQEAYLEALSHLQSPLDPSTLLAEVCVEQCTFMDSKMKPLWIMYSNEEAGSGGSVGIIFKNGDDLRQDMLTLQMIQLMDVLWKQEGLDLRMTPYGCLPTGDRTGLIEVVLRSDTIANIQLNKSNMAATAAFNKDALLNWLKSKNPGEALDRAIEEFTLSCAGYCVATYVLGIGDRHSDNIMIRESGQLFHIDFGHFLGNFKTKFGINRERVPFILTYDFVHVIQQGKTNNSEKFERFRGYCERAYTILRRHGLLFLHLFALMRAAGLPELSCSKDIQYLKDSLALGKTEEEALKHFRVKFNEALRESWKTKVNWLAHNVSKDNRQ
T4 sequence (P27986 whole entry partner): as the sequence (P27986 whole entry partner) above
Protocol: as §1, §2, §3, §4, §5, §6, §7

PI3K beta (PI3Kb) = target: T5, PI3K beta (PI3Kb) (Homo sapiens, UniProt P42338); test: kinobeads assay, PI3K beta; format: binding; settings: Jurkat cell lysate, read-out: Inhibition values (IC50) PI3Kb
T5 construct: Jurkat cells were homogenized in a Potter S homogenizer in lysis buffer; endogenous in cells; host or cells: Jurkat, clone E6-1 (ATCC TIB-152) lysate
T5 sequence (P42338 whole entry): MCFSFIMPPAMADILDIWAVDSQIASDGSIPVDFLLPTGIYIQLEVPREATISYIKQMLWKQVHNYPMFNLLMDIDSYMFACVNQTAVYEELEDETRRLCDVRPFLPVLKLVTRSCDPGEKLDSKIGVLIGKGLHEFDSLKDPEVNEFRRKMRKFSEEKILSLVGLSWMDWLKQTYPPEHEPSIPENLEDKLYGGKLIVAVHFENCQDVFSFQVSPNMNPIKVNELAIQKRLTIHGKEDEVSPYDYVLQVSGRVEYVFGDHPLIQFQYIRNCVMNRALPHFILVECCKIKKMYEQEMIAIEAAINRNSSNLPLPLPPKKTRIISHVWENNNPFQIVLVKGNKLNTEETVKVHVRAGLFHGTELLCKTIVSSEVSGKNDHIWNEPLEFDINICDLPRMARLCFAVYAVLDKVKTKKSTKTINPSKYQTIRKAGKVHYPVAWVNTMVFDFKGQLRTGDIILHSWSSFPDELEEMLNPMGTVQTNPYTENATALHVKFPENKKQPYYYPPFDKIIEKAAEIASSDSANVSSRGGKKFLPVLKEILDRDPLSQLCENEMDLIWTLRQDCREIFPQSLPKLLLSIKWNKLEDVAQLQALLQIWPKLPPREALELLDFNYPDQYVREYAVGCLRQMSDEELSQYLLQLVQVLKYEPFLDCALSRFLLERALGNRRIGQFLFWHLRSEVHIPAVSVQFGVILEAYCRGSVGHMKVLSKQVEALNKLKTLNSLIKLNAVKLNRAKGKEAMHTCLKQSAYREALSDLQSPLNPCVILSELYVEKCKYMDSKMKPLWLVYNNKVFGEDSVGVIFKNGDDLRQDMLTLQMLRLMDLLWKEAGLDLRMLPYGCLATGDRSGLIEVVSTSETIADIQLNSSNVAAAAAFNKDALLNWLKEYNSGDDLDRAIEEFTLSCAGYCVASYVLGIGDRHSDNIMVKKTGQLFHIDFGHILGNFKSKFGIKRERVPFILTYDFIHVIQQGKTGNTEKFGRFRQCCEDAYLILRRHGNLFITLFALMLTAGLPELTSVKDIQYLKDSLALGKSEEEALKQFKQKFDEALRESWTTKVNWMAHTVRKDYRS
T5 sequence (P27986 whole entry partner): as the sequence (P27986 whole entry partner) above
Protocol: as §1, §2, §3, §4, §5, §6, §7

PI3K gamma (PI3Kg) = target: T6, PI3K gamma (PI3Kg) (Homo sapiens, UniProt P48736); test: kinobeads assay, PI3K gamma; format: binding; settings: Jurkat cell lysate, read-out: Inhibition values (IC50) PI3Kg
T6 construct: Jurkat cells were homogenized in a Potter S homogenizer in lysis buffer; endogenous in cells; host or cells: Jurkat, clone E6-1 (ATCC TIB-152) lysate
T6 sequence (P48736 whole entry): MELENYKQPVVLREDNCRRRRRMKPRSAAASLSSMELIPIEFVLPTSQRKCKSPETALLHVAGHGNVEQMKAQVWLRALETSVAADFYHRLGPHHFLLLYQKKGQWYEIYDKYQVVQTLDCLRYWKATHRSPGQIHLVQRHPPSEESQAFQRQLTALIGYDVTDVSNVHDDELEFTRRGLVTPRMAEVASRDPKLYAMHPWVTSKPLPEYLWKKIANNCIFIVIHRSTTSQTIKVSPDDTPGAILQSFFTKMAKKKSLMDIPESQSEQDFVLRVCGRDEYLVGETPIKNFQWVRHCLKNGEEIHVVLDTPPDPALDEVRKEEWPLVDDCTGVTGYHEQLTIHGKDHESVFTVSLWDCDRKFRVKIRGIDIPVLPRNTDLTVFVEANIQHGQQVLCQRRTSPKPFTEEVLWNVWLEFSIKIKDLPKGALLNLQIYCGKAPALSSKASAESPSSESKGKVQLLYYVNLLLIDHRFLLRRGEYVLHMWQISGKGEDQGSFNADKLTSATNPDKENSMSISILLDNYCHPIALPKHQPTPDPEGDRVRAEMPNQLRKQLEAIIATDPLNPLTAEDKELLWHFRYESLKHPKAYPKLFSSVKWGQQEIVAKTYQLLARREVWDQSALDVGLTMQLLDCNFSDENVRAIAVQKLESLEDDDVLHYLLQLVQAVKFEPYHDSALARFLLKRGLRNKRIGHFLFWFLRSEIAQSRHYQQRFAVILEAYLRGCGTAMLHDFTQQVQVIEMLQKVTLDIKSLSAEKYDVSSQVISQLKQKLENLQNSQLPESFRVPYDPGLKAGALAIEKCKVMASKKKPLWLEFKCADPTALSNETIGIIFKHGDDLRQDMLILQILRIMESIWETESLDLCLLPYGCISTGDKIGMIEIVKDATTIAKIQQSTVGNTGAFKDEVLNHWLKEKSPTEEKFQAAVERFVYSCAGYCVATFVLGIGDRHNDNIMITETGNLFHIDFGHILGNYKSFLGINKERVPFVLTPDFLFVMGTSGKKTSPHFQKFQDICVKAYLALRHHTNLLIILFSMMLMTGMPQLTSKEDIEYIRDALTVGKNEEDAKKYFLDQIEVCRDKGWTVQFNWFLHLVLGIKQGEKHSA
Protocol: as §1, §2, §3, §4, §5, §6, §7

IC50 [1] [µM]	IC50 [2] [µM]	IC50 (mTOR) [µM]	IC50 (PI3K alpha (PI3Kα)) [µM]	IC50 (PI3K delta (PI3Kd)) [µM]	IC50 (PI3K beta (PI3Kb)) [µM]	IC50 (PI3K gamma (PI3Kg)) [µM]	SMILES
< 0.1	> 10	0.1 to 1	> 10				CNC(=O)Nc1ccc(-c2nc(-c3cc(F)ccc3S(C)(=O)=O)nc(N3CCOC[C@@H]3C)n2)cc1 [Example 2, (S)-1-(4-(4-(5-fluoro-2-(methylsulfonyl)phenyl)-6-(3-methylmorpholino)-1,3,5-triazin-2-yl)phenyl)-3-methylurea]
	> 10	1 to 10	> 10	> 10	> 10	> 10	CS(=O)(=O)c1ccccc1-c1nc(-c2ccc(NC(=O)NC3CC3)cc2)nc(N2CCOCC2CO)n1 (centres unmarked) [Example 23, 1-cyclopropyl-3-(4-(4-(3-(hydroxymethyl)morpholino)-6-(2-(methylsulfonyl)phenyl)-1,3,5-triazin-2-yl)phenyl)urea]
	> 10	1 to 10	> 10	> 10	> 10	> 10	C[C@H]1COCCN1c1nc(-c2ccc(NC(=O)NC3CCCCC3)cc2)nc(-c2ccccc2S(C)(=O)=O)n1 [Example 28, (S)-1-cyclohexyl-3-(4-(4-(3-methylmorpholino)-6-(2-(methylsulfonyl)phenyl)-1,3,5-triazin-2-yl)phenyl)urea]
	> 10	1 to 10	> 10	> 10	> 10	> 10	C[C@H]1COCCN1c1nc(-c2ccc(NC(=O)NCC(C)(C)C)cc2)nc(-c2ccccc2S(C)(=O)=O)n1 [Example 30, (S)-1-(4-(4-(3-methylmorpholino)-6-(2-(methylsulfonyl)phenyl)-1,3,5-triazin-2-yl)phenyl)-3-neopentylurea]
		1 to 10	> 10				C[C@H]1COCCN1c1nc(-c2ccc(NC(=O)NCCC(N)C(F)(F)F)cc2)nc(-c2ccccc2S(C)(=O)=O)n1 (stereo partly drawn) [Example 37, 1-(3-amino-4,4,4-trifluorobutyl)-3-(4-(4-((S)-3-methylmorpholino)-6-(2-(methylsulfonyl)phenyl)-1,3,5-triazin-2-yl)phenyl)urea]
0.1 to 1		1 to 10	> 10				CS(=O)(=O)c1ccc(F)cc1-c1nc(-c2ccc(NC(=O)NC3CC3)cc2)nc(N2CC3CCC(C2)O3)n1 [Example 39, 1-(4-(4-(8-oxa-3-azabicyclo[3.2.1]octan-3-yl)-6-(5-fluoro-2-(methylsulfonyl)phenyl)-1,3,5-triazin-2-yl)phenyl)-3-cyclopropylurea]
< 0.1	> 10	< 0.1	1 to 10				CCNC(=O)Nc1ccc(-c2nc(-c3cccnc3S(C)(=O)=O)nc(N3CCOC[C@@H]3C)n2)cc1 [Example 40, (S)-1-ethyl-3-(4-(4-(3-methylmorpholino)-6-(2-(methylsulfonyl)pyridin-3-yl)-1,3,5-triazin-2-yl)phenyl)ure]
< 0.1	> 10	< 0.1	1 to 10				CNC(=O)Nc1ccc(-c2nc(-c3cccnc3S(C)(=O)=O)nc(N3CCOC[C@@H]3C)n2)cc1 [Example 41, (S)-1-methyl-3-(4-(4-(3-methylmorpholino)-6-(2-(methylsulfonyl)pyridin-3-yl)-1,3,5-triazin-2-yl)phenyl)urea]
< 0.1	> 10	0.1 to 1	> 10				CCNC(=O)Nc1ccc(-c2nc(-c3cc(F)ccc3S(C)(=O)=O)nc(N3CCOC[C@@H]3C)n2)cc1 [Example 42, (S)-1-ethyl-3-(4-(4-(5-fluoro-2-(methylsulfonyl)phenyl)-6-(3-methylmorpholino)-1,3,5-triazin-2-yl)phenyl)urea]
< 0.1	> 10	0.1 to 1	> 10				C[C@H]1COCCN1c1nc(-c2ccc(NC(=O)NCC(F)F)cc2)nc(-c2cc(F)ccc2S(C)(=O)=O)n1 [Example 43, (S)-1-(2,2-difluoroethyl)-3-(4-(4-(5-fluoro-2-(methylsulfonyl)phenyl)-6-(3-methylmorpholino)-1,3,5-triazin-2-yl)phenyl)urea]
< 0.1	> 10	0.1 to 1	> 10				C[C@H]1COCCN1c1nc(-c2ccc(NC(=O)NCCF)cc2)nc(-c2cc(F)ccc2S(C)(=O)=O)n1 [Example 44, (S)-1-(4-(4-(5-fluoro-2-(methylsulfonyl)phenyl)-6-(3-methylmorpholino)-1,3,5-triazin-2-yl)phenyl)-3-(2-fluoroethyl)urea]
